Assay results taken from patent publication US20090270342A1, “IMMUNOREGULATORY AGENT” (priority 2006, published 2009).

System: intestinal lymph node cells
Experiment: Production of IgA, IgG and cytokines by intestinal lymph node cells of mice fed lactosucrose (Experiment 3)
Assay type: in vivo
Conditions: for IFN-γ produced by intestinal lymph node cells / IL-4 produced by intestinal lymph node cells / IL-6 produced by intestinal lymph node cells / IL-10 produced by intestinal lymph node cells / IgA produced by intestinal lymph node cells / IgG produced by intestinal lymph node cells: four weeks
Method: In order to investigate what type of immunopathologically-mediated tissue exerts the enhancing effect on gut immunity, the amounts of IgA, IgG, and various cytokines were measured. Similarly as in Experiment 1, female BALB/c mice (six weeks old) were preliminary reared for one week on “AIN-93G”, the same standard purified diet as used in Experiment 1. Successively, “LS-90P”, a saccharide composition comprising 91.8% (w/w), on a dry solid basis, of lactosucrose commercialized by ENSUIKO Sugar Refining Co., Ltd., Tokyo, Japan, was incorporated into the above purified diet, in which corn starch equal to the amount of the saccharide composition comprising lactosucrose had been removed, to give a lactosucrose content of 2% (w/w) or 5% (w/w), and five mice/group were allowed to ingest the resulting test diet freely. Mice, allowed to ingest “AIN-93G”, as the standard purified diet, were used as control. At four weeks after starting the administration of the test diet, Peyer's patch and intestinal lymph nodes were respectively removed from the mice and cut using a scissor. Then, the resultants were respectively treated in 0.2% (w/v) aqueous collagenase solution at 37° C. for 30 min, and filtrated using a cell strainer to obtain cell suspensions. Each cell suspension was centrifuged to collect cells and the resulting cells were suspended into a 45% (v/v) solution of “PERCOLL”, commercialized by GE Healthcare, to make into a cell suspension. Each resulting suspension was successively placed on a 75% (v/v) “PERCOLL” solution and centrifuged at 1,000×g for 10 min. Cells in a boundary phase between 45% (v/v) and 75% (v/v) “PERCOLL” solution were collected and suspended in RPMI1640 medium comprising 10% FCS and 10 mM HEPES, and the cell concentration was adjusted to 1×10^6 cells/ml. The resulting cell suspension was placed in a 24-well plate to give one ml/well each. Then, 2 μg/ml of Concanavaline A (Con A) as a stimulator to T-cell or 10 μg/ml of lipopolysaccharide (LPS) as a stimulator to B-cell and macrophage cell was admixed with the cell suspension, and then the cells were cultured at 37° C. for 48 hours using 5% (v/v) carbon dioxide gas. A culture supernatant was collected from each well, and the amounts of IgA, IgG, IFN-γ, interleukin-4 (IL-4), IL-6, interleukin-10 (IL-10), and TGF-β were measured by ELISA using an anti-mouse IgA antibody, anti-mouse IgG antibody, anti-mouse IFN-γ antibody (commercialized by Pepro Tech EC. Ltd.), anti-mouse IL-4 antibody (commercialized by R&D Systems), anti-mouse IL-6 antibody (commercialized by R&D Systems), anti-mouse IL-10 antibody (commercialized by R&D Systems), and anti-mouse TGF-β antibody (commercialized by Promega Co., Wisconsin, USA), and the average values of those from five mice were determined. The results for Peyer's patch cells and intestinal lymph node cells are respectively in Tables 3 and 4. The percentages in parentheses in the tables mean a relative value to the amount of IgA, IgG, IFN-γ, IL-4, IL-6, IL-10 or TGF-β produced by Peyer's patch cells or intestinal lymph node cells from the control mice.

[1] = Lactosucrose 2% (w/w) diet, Con A
[2] = Lactosucrose 2% (w/w) diet, LPS
[3] = Lactosucrose 2% (w/w) diet, LPS, DL: Detection limit
[4] = Lactosucrose 5% (w/w) diet, Con A
[5] = Lactosucrose 5% (w/w) diet, LPS
[6] = Lactosucrose 5% (w/w) diet, LPS, DL: Detection limit

OC[C@H]1O[C@@H](O[C@H]2[C@H](O)[C@@H](O)[C@@H](O[C@]3(CO)O[C@H](CO)[C@@H](O)[C@@H]3O)O[C@@H]2CO)[C@H](O)[C@@H](O)[C@H]1O [Lactosucrose, β-D-galactosyl-(1,4)-α-D-glucosyl-(1,2)-β-D-fructoside]
IFN-γ produced by intestinal lymph node cells [1]: 8.5 ± 3.4 ng/mL
IL-4 produced by intestinal lymph node cells [1]: 22 ± 0.89 pg/mL
IL-6 produced by intestinal lymph node cells [1]: 3.0 ± 0.81 pg/mL
IL-10 produced by intestinal lymph node cells [1]: 14 ± 15 pg/mL
IgA produced by intestinal lymph node cells [1]: 41 ± 15 µg/mL
IgG produced by intestinal lymph node cells [1]: 1.9 ± 1.5 ng/mL
IL-6 produced by intestinal lymph node cells [2]: 7.4 ± 2.6 pg/mL
IgA produced by intestinal lymph node cells [2]: 38 ± 17 µg/mL
IgG produced by intestinal lymph node cells [2]: 1.5 ± 1.0 ng/mL
IFN-γ produced by intestinal lymph node cells [3]: Below DL*
IL-4 produced by intestinal lymph node cells [3]: Below DL*
IL-10 produced by intestinal lymph node cells [3]: Below DL*
IFN-γ produced by intestinal lymph node cells, relative value to control (Lactosucrose 2% (w/w), Con A): (127%)
IL-4 produced by intestinal lymph node cells, relative value to control (Lactosucrose 2% (w/w), Con A): (88%)
IL-6 produced by intestinal lymph node cells, relative value to control (Lactosucrose 2% (w/w), Con A): (103%)
IL-10 produced by intestinal lymph node cells, relative value to control (Lactosucrose 2% (w/w), Con A): (127%)
IgA produced by intestinal lymph node cells, relative value to control (Lactosucrose 2% (w/w), Con A): (85%)
IgG produced by intestinal lymph node cells, relative value to control (Lactosucrose 2% (w/w), Con A): (100%)
IL-6 produced by intestinal lymph node cells, relative value to control (Lactosucrose 2% (w/w), LPS): (107%)
IgA produced by intestinal lymph node cells, relative value to control (Lactosucrose 2% (w/w), LPS): (93%)
IgG produced by intestinal lymph node cells, relative value to control (Lactosucrose 2% (w/w), LPS): (115%)
IFN-γ produced by intestinal lymph node cells [4]: 3.8 ± 1.2 ng/mL
IL-4 produced by intestinal lymph node cells [4]: 21 ± 1.1 pg/mL
IL-6 produced by intestinal lymph node cells [4]: 2.7 ± 0.44 pg/mL
IL-10 produced by intestinal lymph node cells [4]: 14 ± 12 pg/mL
IgA produced by intestinal lymph node cells [4]: 37 ± 31 µg/mL
IgG produced by intestinal lymph node cells [4]: 1.00 ± 0.94 ng/mL
IL-6 produced by intestinal lymph node cells [5]: 4.3 ± 1.1 pg/mL
IgA produced by intestinal lymph node cells [5]: 29 ± 22 µg/mL
IgG produced by intestinal lymph node cells [5]: 0.79 ± 0.79 ng/mL
IFN-γ produced by intestinal lymph node cells [6]: Below DL*
IL-4 produced by intestinal lymph node cells [6]: Below DL*
IL-10 produced by intestinal lymph node cells [6]: Below DL*
IFN-γ produced by intestinal lymph node cells, relative value to control (Lactosucrose 5% (w/w), Con A): (57%)
IL-4 produced by intestinal lymph node cells, relative value to control (Lactosucrose 5% (w/w), Con A): (84%)
IL-6 produced by intestinal lymph node cells, relative value to control (Lactosucrose 5% (w/w), Con A): (93%)
IL-10 produced by intestinal lymph node cells, relative value to control (Lactosucrose 5% (w/w), Con A): (127%)
IgA produced by intestinal lymph node cells, relative value to control (Lactosucrose 5% (w/w), Con A): (77%)
IgG produced by intestinal lymph node cells, relative value to control (Lactosucrose 5% (w/w), Con A): (53%)
IL-6 produced by intestinal lymph node cells, relative value to control (Lactosucrose 5% (w/w), LPS): (62%)
IgA produced by intestinal lymph node cells, relative value to control (Lactosucrose 5% (w/w), LPS): (71%)
IgG produced by intestinal lymph node cells, relative value to control (Lactosucrose 5% (w/w), LPS): (61%)
